These results are taken from PubChem BioAssay (NCI).

Holding throughout (assay): growth of human tumour cells (NCI), 48 h
The subject of assay [1] is CCRF-CEM leukemia.
The test system of assay [2] is HL-60(TB) leukemia.
In assay [3] the test system is HT29 colon.
For assay [4], the system named is NCI-H226 lung.
Assay [5] relates to OVCAR-5 ovarian.
The test system of assay [6] is PC-3 prostate.
The test system of assay [7] is SK-MEL-2 melanoma.
For assay [8], the system named is SNB-75 CNS.
In assay [9] the test system is T-47D breast.
The test system of assay [10] is UACC-257 melanoma.

Where “and” joins values, the source holds several entries; their conditions need not be identical. Identical values can stand only once.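 Each compound was tested at five concentrations against cells in 96-well plates for 48 hours. GI50 marks 50% less growth. Definition used: TGI = concentration required for complete inhibition of growth.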

Take `Cc1cccc2c1NC(=O)C2(c1ccc(O)cc1)c1ccc(O)cc1`: the GI50 was 22.3 µM in assay [1]; 7.64 µM in assay [2]; 15.7 µM in [3]; 18 µM in assay [4]; 12.8 µM in assay [5]; 0.0497 µM in [6]. The GI50 is 15.7 µM in assay [7], 0.0601 µM in [8], < 0.01 µM in assay [9] and 18.4 µM in assay [10]. Besides, the TGI in [1] is > 100 µM; in assay [2] it was 39.6 µM; in [3], 46.5 µM; in assay [4], 59 µM; in assay [5], 67.1 µM; in assay [6] it was > 62 µM. In addition, the figures for the TGI in assay [7], in [8] and in [10] were 37.8 µM, 37.5 µM and 49.2 µM, respectively.
Turning to `Cc1nc2sc(C(=O)Nc3cccc(Cl)c3C)c(N)c2cc1C(=O)c1ccccc1`, the GI50 in assay [1] was 0.18 µM; in [2], 0.147 µM; in assay [3], 0.202 µM; in assay [4], 1.28 µM; in assay [5], 1.26 µM; in [6], 0.258 µM. Further, the GI50 in assay [7] was 0.329 µM; in assay [8] it was 0.121 µM; in [9] it was 0.245 µM; in assay [10] it was 14.6 µM. For the same compound, the TGI was > 50 µM in assay [1]; > 17.9 µM in assay [3]; > 50 µM in assay [4]; > 50 µM in assay [5]; > 50 µM in assay [6]; > 50 µM in assay [7]. For the same compound, the TGI in [9] and in assay [10] was > 50 µM each time.
With `COc1cc(C(=O)Nc2cc(O)c(C/C=C(\C)CCC=C(C)C)c(O)c2)cc2c1O[C@]1(C)CC[C@@H](O)C(C)(C)[C@H]1C2`, the GI50 in [1] was 0.0438 µM and 0.0384 µM; in assay [2], 0.00716 µM and 0.0699 µM; in assay [3], 1.42 µM and 0.955 µM; in assay [4], 3.47 µM; in [5], 2.89 µM and 3.49 µM; in [6], 0.0302 µM and 0.0463 µM. Moreover, the GI50 in assay [7] was 0.0833 µM and 0.215 µM; in assay [8], 0.00898 µM and < 0.0111 µM; in assay [9], 0.401 µM and 0.69 µM; in [10], 4.91 µM and 1.58 µM. The TGI in [1] is > 22.7 µM; in assay [3] it was 5.43 µM and 3.79 µM; in assay [4], 29 µM; in assay [5], 21.6 µM; in [6], 17.8 µM; in assay [7] it was 3.08 µM. Further, the TGI in assay [8] stood at 7.56 µM; in [9], 4.88 µM; in assay [10], 23.8 µM.
As to `Nc1ncnc2c1c(C(=O)NO)cn2C1OC(CO)C(O)C1O` (stereo not drawn), the GI50 in assay [1] was 0.235 µM; in [2] it was 0.158 µM; in assay [3], 0.39 µM; in assay [4], 0.6 µM; in assay [5], 0.604 µM; in [6] it was 0.286 µM. Further, the GI50 is 0.333 µM in assay [7], 0.509 µM in assay [8], 0.0885 µM in assay [9] and 0.522 µM in assay [10]. The TGI in assay [1] was > 100 µM; in [2] it was 0.457 µM; in assay [3], > 100 µM; in [4], 5.51 µM; in assay [6], > 41.9 µM; in [7] it was 1.92 µM. The TGI amounted to 8.04 µM in assay [8], 1.39 µM in [9] and 3.52 µM in [10].
As for `NCC(=O)NC(CO)C(=O)O` (stereo not drawn), the TGI in [1], in [2], in assay [3], in assay [4], in [5] and in assay [6] was > 100 µM in each case. Besides, the TGI in [7], in assay [8], in assay [9] and in assay [10] was > 100 µM in each case.
With `O=[N+]([O-])c1ccc(NN=C2c3ccccc3Cc3ccccc32)c([N+](=O)[O-])c1`, the TGI in assay [1] is 18.2 µM; in assay [2], > 30 µM; in assay [3], 22.2 µM; in assay [4] it was > 100 µM; in [5], > 100 µM; in [6], > 100 µM. The TGI in assay [7] is > 43.4 µM; in assay [8], 75.1 µM; in [9], > 100 µM; in [10], > 100 µM.
For the compound `COc1ccc(NC(=O)CC(=O)n2nc(-c3ccccc3)c(N=Nc3ccccc3C)c2-c2ccccc2)cc1`, the TGI is > 100 µM in assay [1]; > 100 µM in assay [2]; > 100 µM in assay [3]; 63.7 µM in [4]; > 100 µM in assay [5]; 32.8 µM in assay [6]. For the same compound, the TGI was 56.9 µM in assay [7], 36.6 µM in assay [8], 57.7 µM in assay [9] and > 100 µM in [10].
On to `COc1cccc2cc(-c3nc(C4CCC(C(=O)O)CC4)n4ncnc(N)c34)[nH]c12` (stereo not drawn), for which the GI50 in assay [1] was 0.247 µM and 0.816 µM; in [2], 3.13 µM and > 3.55 µM; in assay [3] it was 1.2 µM and 2.52 µM; in assay [4] it was 0.347 µM and 0.397 µM; in assay [5], 0.289 µM and 0.658 µM; in assay [6], 0.129 µM and 0.342 µM. For the same compound, the GI50 in assay [7] is 0.108 µM and 0.347 µM; in assay [8], 0.0952 µM and 0.152 µM; in assay [9], 0.045 µM and 0.0505 µM; in assay [10], 0.198 µM and 0.378 µM. Moreover, the TGI in assay [1] was 16.2 µM and > 10 µM; in assay [2], 25.7 µM and > 10 µM; in assay [3] it was 79.9 µM and > 10 µM; in assay [4], > 7.79 µM; in [5], > 100 µM; in [6] it was 2.03 µM and 4.42 µM. Besides, the TGI in [7] is 0.633 µM and 2.23 µM; in [8], 1.03 µM and 1.3 µM; in assay [9], 0.442 µM and 0.356 µM; in [10] it was 2.1 µM and 4.19 µM.
With `[O]=[W](=[O])([OH])[OH]`, the GI50 in assay [1], in assay [2], in [3], in assay [4], in assay [5] and in assay [6] was > 100 µM in each case. Moreover, the GI50 in assay [7], in assay [8], in assay [9] and in assay [10] was > 100 µM each time. Besides, the TGI in [1], in assay [2], in [3], in assay [4], in [5] and in assay [6] was > 100 µM each time. Moreover, the TGI in assay [7], in [8], in [9] and in assay [10] was > 100 µM each time.
Regarding `CC(C)NCCCCCNc1cc(O)cc2cccnc12`, the GI50 in [1] was > 51.2 µM; in assay [2], 0.751 µM; in assay [3] it was 31.6 µM; in assay [4] it was > 100 µM; in assay [5] it was > 100 µM; in assay [6], > 100 µM. Besides, the GI50 in assay [7] is > 100 µM; in assay [8], > 58.2 µM; in assay [9], 4.56 µM; in [10] it was 17.7 µM. Also, the TGI was > 100 µM in assay [1]; 4.36 µM in assay [2]; > 100 µM in [3]; > 100 µM in assay [4]; > 100 µM in assay [5]; > 100 µM in assay [6]. The TGI in [7] is > 100 µM; in [8], > 100 µM; in [9], > 100 µM; in [10] it was > 75.1 µM.
As for `C/C=C(\C)C(=O)OC1C2C(C)C(=O)OC2C(O)C(C)C2C=CC(=O)C21C` (stereo not drawn), the TGI was 35.1 µM in assay [1]; 18.4 µM in assay [2]; 32 µM in assay [3]; 46.5 µM in [4]; 38.8 µM in assay [5]; 34.1 µM in assay [6]. In addition, the TGI in assay [7] turned out to be 34.4 µM; in assay [8], 43.3 µM; in assay [9], 43.3 µM; in assay [10], 30.2 µM.
`CCNC(=O)c1ccc2c(c1)nc(-c1ccc(Cl)cc1)n2-c1cc(C(C)(C)C)[nH]n1`: the GI50 is 2.94 µM in assay [1]; 2.72 µM in assay [2]; 3.13 µM in assay [3]; 2.56 µM in assay [4]; 5.91 µM in assay [5]; 2.87 µM in assay [6]. The GI50 was 2.81 µM in assay [7], 2.17 µM in [8], 3.99 µM in [9] and 3.59 µM in [10]. For the same compound, the TGI in assay [1] amounted to 40.7 µM; in assay [2] it was 7.6 µM; in assay [3], 9.71 µM; in assay [4], 9.24 µM; in assay [5], 40.1 µM; in assay [6], 48.8 µM. The TGI in assay [7] is 8.15 µM; in assay [8], 12 µM; in [9], > 100 µM; in assay [10], 30.5 µM.
Regarding `O=C(Nc1cccc(-n2cc(-c3ccncc3)c(-c3ccc(O)c(Cl)c3)n2)c1)c1ccc(N2CCOCC2)c(C(F)(F)F)c1`, the GI50 in assay [1] was 1.34 µM; in [2], 1.2 µM; in assay [3] it was 2.36 µM; in assay [4], > 50 µM; in assay [5] it was > 50 µM; in assay [6], 2.39 µM. The GI50 was 34 µM in [7], 0.745 µM in assay [8], 2.99 µM in assay [9] and > 50 µM in assay [10]. For the same compound, the TGI was > 50 µM in assay [1]; 3.15 µM in assay [2]; > 50 µM in assay [3]; > 50 µM in assay [4]; > 50 µM in assay [5]; > 50 µM in [6]. The TGI in [7], in assay [8], in assay [9] and in assay [10] was > 50 µM in each case.
For the compound `CCCCC/C=C\C/C=C/CCCCCCCCNC(=O)Nc1ccc([N+](=O)[O-])cc1`, the GI50 in assay [1] is 4.59 µM; in [2], 19.9 µM; in assay [3] it was 25.1 µM; in assay [4] it was 14.8 µM; in [5], 30.8 µM; in [6], 4.45 µM. In addition, the GI50 in assay [7] is 32.3 µM; in assay [8], 22.9 µM; in assay [9], 22.7 µM; in [10], 40.7 µM. The TGI was > 100 µM in [1]; 47.5 µM in assay [2]; > 100 µM in [3]; > 100 µM in [4]; > 100 µM in [5]; > 100 µM in assay [6]. For the same compound, the TGI in [7], in [8], in assay [9] and in [10] was > 100 µM in each case.
For `CS(=O)(=O)c1ccc(-c2[nH]c3ccc(F)cc3c2/C=N/NC(N)=S)cc1`, the GI50 in assay [1] is 0.366 µM; in [2], 0.396 µM; in [3], 0.558 µM; in assay [4] it was 3.28 µM; in assay [5], 3.74 µM; in assay [6], 0.51 µM. The GI50 in assay [7] was 10.6 µM; in [8] it was 1.85 µM; in assay [9], 12.3 µM; in assay [10] it was > 100 µM. Moreover, the TGI in [1] is 27.2 µM; in assay [2], 5.05 µM; in assay [3] it was 15.2 µM; in assay [4], > 100 µM; in assay [5], > 100 µM; in assay [6], 26.8 µM. In addition, the TGI was > 100 µM in [7], > 100 µM in assay [8], 85 µM in assay [9] and > 100 µM in assay [10].
On to `CCCC(=O)Nc1ncnc2c1ncn2C1OC2COP(=O)(O)OC2C1OC(=O)CCC` (stereo not drawn), for which the TGI in [1], in assay [2], in assay [3], in [4], in assay [5] and in assay [6] was > 1000 µM throughout. For the same compound, the TGI in [7], in assay [8], in [9] and in assay [10] was > 1000 µM throughout. Also, the GI50 in assay [3], in assay [4], in assay [5], in [6], in assay [7] and in assay [8] was > 1000 µM in each case. The GI50 in assay [9] and in [10] was > 1000 µM in each case.
